Test results from ChEMBL document CHEMBL1132014, “Novel 1,2,3,4-tetrahydroisoquinolines with high affinity and selectivity for the dopamine D3 receptor” (Bioorg Med Chem Lett, 1999).

Legend:
D(2) dopamine receptor [1] = molecular target: T1, D(2) dopamine receptor (Homo sapiens, UniProt P14416); experiment: Displacement [125I]iodosulpiride from human Dopamine receptor D2 expressed in CHO cells; format: cell-based
D(3) dopamine receptor [2] = molecular target: T2, D(3) dopamine receptor (Homo sapiens, UniProt P35462); experiment: Displacement of [125I]iodosulpiride from human Dopamine receptor D3 expressed in CHO cells; format: cell-based
T2 sequence (P35462 whole entry): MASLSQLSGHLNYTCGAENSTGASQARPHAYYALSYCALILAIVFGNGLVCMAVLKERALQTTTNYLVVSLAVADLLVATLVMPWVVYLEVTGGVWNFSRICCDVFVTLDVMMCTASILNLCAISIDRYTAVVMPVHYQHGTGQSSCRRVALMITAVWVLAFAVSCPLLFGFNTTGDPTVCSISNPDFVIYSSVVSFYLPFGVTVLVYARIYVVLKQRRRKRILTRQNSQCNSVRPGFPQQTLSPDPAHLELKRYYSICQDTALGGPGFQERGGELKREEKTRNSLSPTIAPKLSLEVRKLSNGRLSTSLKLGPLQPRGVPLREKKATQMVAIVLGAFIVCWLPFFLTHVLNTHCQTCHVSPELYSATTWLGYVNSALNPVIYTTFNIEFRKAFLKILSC

[3] = Half life in rat; format: ADME, organism-based; settings: in vivo
D(3) dopamine receptor [4] = molecular target: T2, D(3) dopamine receptor; experiment: In vitro functional antagonist effect by its affinity to bind to Dopamine receptor D3
[5] = Pharmacokinetic property (blood clearance) in rat; format: ADME, organism-based
D(2) dopamine receptor [6] = molecular target: T1, D(2) dopamine receptor; experiment: In vitro functional antagonist effect by its affinity to bind to Dopamine receptor D2
[7] = Pharmacokinetic property (CLb)of the compound was determined in rat; format: ADME, organism-based; settings: blood, read-out: CLb

T1 sequence (P14416 whole entry): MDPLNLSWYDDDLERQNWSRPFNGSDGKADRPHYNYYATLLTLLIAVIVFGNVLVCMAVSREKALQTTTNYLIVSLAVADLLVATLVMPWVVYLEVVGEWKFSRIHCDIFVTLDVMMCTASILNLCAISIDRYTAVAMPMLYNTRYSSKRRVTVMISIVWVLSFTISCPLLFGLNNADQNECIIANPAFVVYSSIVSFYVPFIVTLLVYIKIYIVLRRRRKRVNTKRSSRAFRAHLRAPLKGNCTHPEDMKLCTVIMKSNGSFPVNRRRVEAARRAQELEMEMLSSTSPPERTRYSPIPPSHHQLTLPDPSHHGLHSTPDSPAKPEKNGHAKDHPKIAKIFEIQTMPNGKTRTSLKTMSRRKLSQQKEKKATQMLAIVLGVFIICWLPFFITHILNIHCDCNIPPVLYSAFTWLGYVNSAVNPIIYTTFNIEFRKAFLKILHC

Compound	Ki (D(2) dopamine receptor [1]) [nM]	Ki (D(3) dopamine receptor [2]) [nM]	further results
CN(C)c1ccc(/C=C/C(=O)NCCCCN2CCc3ccc(OS(=O)(=O)C(F)(F)F)cc3C2)cc1	501	3.98	–
CC(=O)c1cccc(/C=C/C(=O)NCCCCN2CCc3ccc(OS(=O)(=O)C(F)(F)F)cc3C2)c1	398	3.98	–
Cn1c(=O)ccc2cc(/C=C/C(=O)NCCCCN3CCc4ccc(OS(=O)(=O)C(F)(F)F)cc4C3)ccc21	316	10	–
O=C(NCCCCN1CCc2ccc(OS(=O)(=O)C(F)(F)F)cc2C1)c1ccc(-c2ccc(N3CCCC3=O)cc2)cc1	126	2.51	–
O=C(/C=C/c1ccc2nc(O)ccc2c1)NCCCCN1CCc2ccc(OS(=O)(=O)C(F)(F)F)cc2C1	158	2.51	–
O=C(/C=C/c1ccc2[nH]ccc2c1)NCCCCN1CCc2ccc(OS(=O)(=O)C(F)(F)F)cc2C1	200	2	–
O=C(/C=C/c1ccc2ncccc2c1)NCCCCN1CCc2ccc(OS(=O)(=O)C(F)(F)F)cc2C1	251	3.16	–
O=C(/C=C/c1cnc2ccccc2c1)NCCCCN1CCc2ccc(OS(=O)(=O)C(F)(F)F)cc2C1	316	3.98	–
COc1ccc(/C=C/C(=O)NCCCCN2CCc3ccc(OS(=O)(=O)C(F)(F)F)cc3C2)cc1	316	3.98	–
Cc1nnc(-c2ccc(-c3ccc(C(=O)NCCCCN4CCc5ccc(OS(=O)(=O)C(F)(F)F)cc5C4)cc3)cc2)o1	100	2	–
CCCN(CCCCNC(=O)c1ccc(-c2ccccc2)cc1)C1CCc2c(Cl)cccc2C1 (stereo unspecified)	–	–	clearance [7]: 80 mL/min/kg
O=C(NCCCCN1CCc2ccccc2C1)c1ccc(-c2ccccc2)cc1	501	25.1	clearance [7]: 20 mL/min/kg
COc1cccc(/C=C/C(=O)NCCCCN2CCc3ccc(OS(=O)(=O)C(F)(F)F)cc3C2)c1	316	3.16	–
CC(=O)c1ccc(/C=C/C(=O)NCCCCN2CCc3ccc(OS(=O)(=O)C(F)(F)F)cc3C2)cc1	251	3.98	–

Now from value to molecule, other results behind:

Ki (D(2) dopamine receptor [1]) [nM]	Ki (D(3) dopamine receptor [2]) [nM]	Compound	further results
1580	50.1	Cc1ccccc1-c1ccc(C(=O)NCCCCN2CCc3ccc(OS(=O)(=O)C(F)(F)F)cc3C2)cc1	–
100	2.51	CNC(=O)c1ccc(-c2ccc(C(=O)NCCCCN3CCc4ccc(OS(=O)(=O)C(F)(F)F)cc4C3)cc2)cc1	–
316	5.01	O=C(/C=C/c1ccccc1)NCCCCN1CCc2ccc(OS(=O)(=O)C(F)(F)F)cc2C1	–
398	3.98	O=C(/C=C/c1ccc2ccccc2n1)NCCCCN1CCc2ccc(OS(=O)(=O)C(F)(F)F)cc2C1	–
200	2.51	CC(=O)c1ccc(-c2ccc(C(=O)NCCCCN3CCc4ccc(OS(=O)(=O)C(F)(F)F)cc4C3)cc2)cc1	–
126	2	CNC(=O)c1cccc(-c2ccc(C(=O)NCCCCN3CCc4ccc(OS(=O)(=O)C(F)(F)F)cc4C3)cc2)c1	–
1000	5.01	O=C(/C=C/c1ccc2ccccc2c1)NCCCCN1CCc2ccc(OS(=O)(=O)C(F)(F)F)cc2C1	–
631	3.98	O=C(/C=C/c1c[nH]c2ccccc12)NCCCCN1CCc2ccc(OS(=O)(=O)C(F)(F)F)cc2C1	half-life [3]: 2.5 h; pKb (D(3) dopamine receptor [4]): 8.9; clearance [5]: 27 mL/min/kg; pKb (D(2) dopamine receptor [6]): 6.6
316	39.8	O=C(/C=C\c1ccccc1)NCCCCN1CCc2ccc(OS(=O)(=O)C(F)(F)F)cc2C1	–
1000	50.1	Cc1cc(C(=O)NCCCCN2CCc3ccc(OS(=O)(=O)C(F)(F)F)cc3C2)ccc1-c1ccccc1	–
501	7.94	O=C(NCCCCN1CCc2ccc(OS(=O)(=O)C(F)(F)F)cc2C1)c1ccc(-c2ccccc2)cc1	–
501	126	O=C(NCCCCN1CCc2ccc(OS(=O)(=O)C(F)(F)F)cc2C1)c1cccc(-c2ccccc2)c1	–
